Reference: ChEMBL document CHEMBL3632523, “Evaluation of Improved Glycogen Synthase Kinase-3α Inhibitors in Models of Acute Myeloid Leukemia” (J Med Chem, 2015)
≈ marks a conversion by molar mass, not a printed value. Blank lines part the entries; values can stand above or below the molecule they belong to. Calls of active or inactive are those of the source. The rule behind the calls is not given here.

Assays:
[1] = Aqueous solubility of the compound in water by HPLC based shake flask method; type: physicochemical
Danio rerio [2] = experiment: Toxicity in wild type zebrafish embryo in E3 medium assessed as induction of lethality treated at <60 uM dosed 24 hrs of post fertilization observed on 96 to 120 hrs of post fertilization; type: organism-based; details: in vivo
Danio rerio [3] = experiment: Induction of morphological abnormality in wild type zebrafish embryo in E3 medium dosed 24 hrs of post fertilization; type: functional, organism-based
Danio rerio [4] = experiment: Induction of morphological abnormality in wild type zebrafish embryo in E3 medium at 1 to 15 uM dosed 24 hrs of post fertilization; type: functional, organism-based
Danio rerio [5] = experiment: Induction of morphological abnormality wild type zebrafish embryo in E3 medium assessed as stunted and crooked tail phenotype at >30 uM dosed 24 hrs of post fertilization; type: functional, organism-based
Danio rerio [6] = experiment: Inhibition of embryonic development in wild type zebrafish embryo in E3 medium assessed as beta catenin activation at >30 uM dosed 24 hrs of post fertilization; type: functional, organism-based
[7] = target: T1, Glycogen synthase kinase-3 alpha (Homo sapiens, UniProt P49840)
Target sequence in this assay (P49840 whole entry): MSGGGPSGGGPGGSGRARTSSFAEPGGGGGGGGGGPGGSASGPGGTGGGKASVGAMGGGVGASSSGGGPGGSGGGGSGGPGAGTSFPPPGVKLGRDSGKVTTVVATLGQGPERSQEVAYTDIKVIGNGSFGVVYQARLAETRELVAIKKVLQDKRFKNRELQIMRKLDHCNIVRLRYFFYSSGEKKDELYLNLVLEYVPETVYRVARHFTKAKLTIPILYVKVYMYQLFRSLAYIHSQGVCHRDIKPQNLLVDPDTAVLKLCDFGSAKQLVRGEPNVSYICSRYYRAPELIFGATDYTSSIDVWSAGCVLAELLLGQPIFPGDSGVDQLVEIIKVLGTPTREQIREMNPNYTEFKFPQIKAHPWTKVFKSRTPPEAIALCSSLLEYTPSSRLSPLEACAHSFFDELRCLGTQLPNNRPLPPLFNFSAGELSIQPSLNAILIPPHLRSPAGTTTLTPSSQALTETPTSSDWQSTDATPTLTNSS

[8] = target: Glycogen synthase kinase-3 beta (Homo sapiens, UniProt P49841)
[9] = target: T1, Glycogen synthase kinase-3 alpha; details: HL-60, 5 to 10 uM
Target sequence in this assay (P49840 2-483 limits assumed): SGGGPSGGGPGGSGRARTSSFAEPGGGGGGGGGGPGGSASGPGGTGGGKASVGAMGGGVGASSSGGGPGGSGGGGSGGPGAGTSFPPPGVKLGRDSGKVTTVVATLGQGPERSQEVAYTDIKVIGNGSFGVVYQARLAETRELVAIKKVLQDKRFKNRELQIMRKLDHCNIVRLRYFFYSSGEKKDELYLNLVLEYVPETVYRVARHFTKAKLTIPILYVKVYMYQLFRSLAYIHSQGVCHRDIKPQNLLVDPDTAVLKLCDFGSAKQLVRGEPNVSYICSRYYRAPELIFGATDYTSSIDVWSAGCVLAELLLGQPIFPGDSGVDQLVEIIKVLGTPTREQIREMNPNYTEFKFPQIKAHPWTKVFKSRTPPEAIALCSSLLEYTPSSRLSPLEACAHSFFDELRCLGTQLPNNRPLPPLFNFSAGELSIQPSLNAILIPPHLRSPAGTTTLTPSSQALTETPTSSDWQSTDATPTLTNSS
Description: Inhibition of GSK-3 alpha in human HL-60 cells assessed as decreased nuclear to cytoplasmic ratio at 5 to 10 uM after 6 days by May-Grunwald Giemsa staining based light microscopy

[10] = target: T1, Glycogen synthase kinase-3 alpha; details: NB-4, 5 to 10 uM
Target sequence in this assay (P49840 2-483 limits assumed): as above
Description: Inhibition of GSK-3 alpha in human NB4 cells assessed as decreased nuclear to cytoplasmic ratio at 5 to 10 uM after 6 days by May-Grunwald Giemsa staining based light microscopy

[11] = target: T1, Glycogen synthase kinase-3 alpha; details: HL-60, 5 to 10 uM; remark: listed apart in the source
Target sequence in this assay (P49840 2-483 limits assumed): as above
Description: Inhibition of GSK-3 alpha in human HL-60 cells assessed as increased vacuolization at 5 to 10 uM after 6 days by May-Grunwald Giemsa staining based light microscopy

[12] = target: T1, Glycogen synthase kinase-3 alpha; details: NB-4, 5 to 10 uM; remark: listed apart in the source
Target sequence in this assay (P49840 2-483 limits assumed): as above
Description: Inhibition of GSK-3 alpha in human NB4 cells assessed as increased vacuolization at 5 to 10 uM after 6 days by May-Grunwald Giemsa staining based light microscopy

[13] = target: T1, Glycogen synthase kinase-3 alpha; details: HL-60, 5 to 10 uM; remark: listed apart in the source
Target sequence in this assay (P49840 2-483 limits assumed): as above
Description: Inhibition of GSK-3 alpha in human HL-60 cells assessed as CD11b expression at 5 to 10 uM after 6 days by flow cytometry

[14] = target: T1, Glycogen synthase kinase-3 alpha; details: HL-60, 5 to 10 uM; remark: listed apart in the source
Target sequence in this assay (P49840 2-483 limits assumed): as above
Description: Inhibition of GSK-3 alpha in human HL-60 cells assessed as CD11c expression at 5 to 10 uM after 6 days by flow cytometry

[15] = target: T1, Glycogen synthase kinase-3 alpha; details: HL-60, 5 to 10 uM; remark: listed apart in the source
Description: Inhibition of GSK-3 alpha in human HL-60 cells assessed as CD14 expression at 5 to 10 uM after 6 days by flow cytometry

[16] = target: T1, Glycogen synthase kinase-3 alpha; details: NB-4, 5 to 10 uM; remark: listed apart in the source
Description: Inhibition of GSK-3 alpha in human NB4 cells assessed as CD11b expression at 5 to 10 uM after 6 days by flow cytometry

[17] = target: T1, Glycogen synthase kinase-3 alpha; details: NB-4, 5 to 10 uM; remark: listed apart in the source
Description: Inhibition of GSK-3 alpha in human NB4 cells assessed as CD11c expression at 5 to 10 uM after 6 days by flow cytometry

[18] = target: T1, Glycogen synthase kinase-3 alpha; details: NB-4, 5 to 10 uM; remark: listed apart in the source
Description: Inhibition of GSK-3 alpha in human NB4 cells assessed as CD14 expression at 5 to 10 uM after 6 days by flow cytometry

[19] = target: T1, Glycogen synthase kinase-3 alpha; details: HL-60, 5 to 10 uM; remark: listed apart in the source
[20] = target: T1, Glycogen synthase kinase-3 alpha; details: NB-4, 5 to 10 uM; remark: listed apart in the source
Sus scrofa [21] = species on record: Sus scrofa; details: 100 nM
Sus scrofa [22] = species on record: Sus scrofa; details: 100 nM; remark: listed apart in the source

Glycogen synthase kinase-3 beta, sequence (P49841 whole entry): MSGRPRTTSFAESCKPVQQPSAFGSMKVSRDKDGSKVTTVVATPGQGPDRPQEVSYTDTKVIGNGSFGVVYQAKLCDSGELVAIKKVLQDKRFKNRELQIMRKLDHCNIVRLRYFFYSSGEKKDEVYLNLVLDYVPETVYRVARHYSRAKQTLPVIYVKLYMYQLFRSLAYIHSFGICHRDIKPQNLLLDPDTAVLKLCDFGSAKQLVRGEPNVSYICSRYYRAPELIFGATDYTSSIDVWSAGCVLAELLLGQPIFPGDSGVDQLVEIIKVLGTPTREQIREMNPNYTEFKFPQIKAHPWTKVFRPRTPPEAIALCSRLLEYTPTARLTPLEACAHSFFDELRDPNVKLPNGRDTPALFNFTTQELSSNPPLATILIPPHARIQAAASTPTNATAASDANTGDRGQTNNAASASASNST

Compound: N#Cc1ccc(-c2ccc(CSc3nnc(-c4ccc5c(c4)OCCO5)o3)cc2)nc1
solubility thermodynamic [1]: 181 µM (≈ 77.6 µg/mL) | Activity (Danio rerio [2]): Non-toxic | Activity (Danio rerio [3]): inactive

Compound: NC(=O)c1cc(F)ccc1-c1ccc(CSc2nnc(-c3ccc4c(c3)OCCO4)o2)cc1
solubility thermodynamic [1]: 73 µM (≈ 33.8 µg/mL) | Activity (Danio rerio [2]): Non-toxic | Activity (Danio rerio [4]): inactive | Activity (Danio rerio [5]): Active | Activity (Danio rerio [6]): Active | IC50 [7]: 42 nM | IC50 [8]: 140 nM | inhibition [9]: Active | inhibition [10]: Active | inhibition [11]: Active | inhibition [12]: Active | inhibition [13]: Active | inhibition [14]: Active | inhibition [15]: Active | inhibition [16]: Active | inhibition [17]: Active | inhibition [18]: Active | inhibition [19]: Active | inhibition [20]: Active

Compound: Cc1ccc(-c2ccc(CSc3nnc(-c4ccc5c(c4)OCCO5)o3)cc2)nc1
solubility thermodynamic [1]: 1 µM (≈ 0.417 µg/mL)

Compound: Fc1ccc(-c2ccc(CSc3nnc(-c4ccc5c(c4)OCCO5)o3)cn2)cn1
solubility thermodynamic [1]: 1 µM (≈ 0.422 µg/mL)

Compound: Fc1ccc(-c2ccc(CSc3nnc(-c4ccc5c(c4)OCCO5)o3)cc2)cn1
solubility thermodynamic [1]: 17 µM (≈ 7.16 µg/mL)

Compound: Cc1ccc(-c2ccc(CSc3nnc(-c4ccc5c(c4)OCCO5)o3)cc2)cn1
solubility thermodynamic [1]: < 1 µM

Results, then the molecule that gave them:

inhibition (Sus scrofa [21]): 0% | inhibition (Sus scrofa [22]): 0%
Compound: N#Cc1cc(F)ccc1-c1ccc(CS(=O)(=O)c2nnc(-c3ccc4c(c3)OCCO4)o2)cc1

solubility thermodynamic [1]: 1 µM (≈ 0.445 µg/mL)
Compound: N#Cc1cc(F)ccc1-c1ccc(CSc2nnc(-c3ccc4c(c3)OCCO4)o2)cc1

solubility thermodynamic [1]: 50 µM (≈ 21.4 µg/mL)
Compound: N#Cc1ccc(-c2ccc(CSc3nnc(-c4ccc5c(c4)OCCO5)o3)cc2)cn1
